{
  "source": "patent US8420852B2",
  "about": "“Phospholipase A2 inhibitors and their use in treating neurological injury and disease” (The Regents of the University of California, priority 2007, dated 2013)",
  "molecular_target": "T1, human cPLA2 (GIVA) (Homo sapiens, UniProt P47712)",
  "T1 sequence (P47712 1-749)": "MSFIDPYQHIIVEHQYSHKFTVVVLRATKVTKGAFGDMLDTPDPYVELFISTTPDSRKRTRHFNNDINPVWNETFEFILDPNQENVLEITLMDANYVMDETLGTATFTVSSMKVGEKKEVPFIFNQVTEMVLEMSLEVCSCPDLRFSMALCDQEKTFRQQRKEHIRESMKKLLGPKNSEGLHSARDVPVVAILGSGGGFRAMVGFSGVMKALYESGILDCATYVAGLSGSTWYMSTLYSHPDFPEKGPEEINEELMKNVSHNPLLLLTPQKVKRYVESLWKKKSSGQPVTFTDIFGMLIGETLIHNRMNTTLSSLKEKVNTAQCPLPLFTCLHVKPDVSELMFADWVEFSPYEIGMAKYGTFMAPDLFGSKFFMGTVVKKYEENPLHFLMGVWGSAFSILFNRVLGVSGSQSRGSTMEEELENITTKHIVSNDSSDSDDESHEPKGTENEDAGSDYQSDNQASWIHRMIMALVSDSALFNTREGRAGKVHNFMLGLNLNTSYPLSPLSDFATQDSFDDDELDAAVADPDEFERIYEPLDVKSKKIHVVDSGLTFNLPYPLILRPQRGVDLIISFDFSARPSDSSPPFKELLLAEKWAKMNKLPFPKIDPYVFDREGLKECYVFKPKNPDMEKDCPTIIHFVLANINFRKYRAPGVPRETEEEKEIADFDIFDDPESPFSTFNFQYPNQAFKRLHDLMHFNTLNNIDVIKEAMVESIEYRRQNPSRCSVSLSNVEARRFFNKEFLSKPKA",
  "assay": "cPLA2 (GIVA) specific mixed micelle assay",
  "format": "biochemical",
  "conditions": "at 0.091 mol fraction",
  "experimental": "The compounds described herein were tested for inhibition of PLA2s in in vitro assay systems. The data, summarized in the Examples, are represented as XI(50) values unless otherwise noted. XI(50) is defined as the inhibitor concentration that produced 50% inhibition. XI(50) is used as opposed to the more common IC50 because GIVA and GVIA PLA2 are active at a two-dimensional lipid interface rather than in three-dimensional solution. (Deems, Anal. Biochem., 287:1-16, 2000).\nFor the groups that received delayed treatment after symptoms occurred, mice were treated with daily intraperitoneal injections of AX059 starting from the first day of clinical symptoms, beginning on day 11; and AX115 starting from the first day of clinical peak (i.e., score 4), beginning of day 14. All inhibitors were administered for 2 weeks. The selectivity of the compounds for the different PLA2s is shown as the percentage inhibition in Table 1. The XI(50) is the mole fraction of the inhibitor in the total substrate interface required to inhibit the enzyme by 50%.\nCompound AX115 was tested for its ability to inhibit human cPLA2 (GIVA) in a cPLA2 (GIVA) specific assay that uses mixed micelles of the substrate 1-palmitoyl-2-arachidonyl phosphatidylcholine and the detergent Triton X-100 (97:3) containing phosphatidylinositol 4,5-bisphosphate (400 μM) as previously described. […]",
  "data": [
    {"smiles": "CCCCCCCCCCCCCCC(=O)C(=O)NCC(=O)OC", "note": "[AX115]", "values": [
      {"measurement": "Inhibition cPLA2 GIVA", "result": 62, "unit": "%"}
    ]}
  ]
}
